Data as given in patent publication US11166924B2, “N-methyl-d-aspartate receptor allosteric modulators and methods for their use” (Qingdao Primedicine Pharmaceutical Company, Ltd., priority 2016, dated 2021).

Key:
[1] = target: T1, GluN1/GluN2A^P178G (Rattus norvegicus, UniProt P35439+Q00959, P178G); test: Patch clamp in HEK293 cells expressing mutant GluN1/GluN2A P178G; type: cell-based
T1 construct: expressed in transfected cells; host or cells: HEK293
Method: (§1) Whole cell patch-clamp recordings were performed under voltage-clamp mode using an Axopatch 200B or 1D patch-clamp amplifier (Molecular Devices). Whole-cell currents were recorded at a holding potential of −60 mV unless indicated elsewhere, and signals were filtered at 2 kHz, digitized at 10 kHz (Digidata 1322A). Recording pipettes (3-5 MΩ) were filled with intracellular solution containing (mM): CsCl 140, HEPES 10, Mg-ATP 4, QX-314 5, pH 7.20; osmolarity, 290-295 mOsm. BAPTA (10 mM) was added in the intracellular solution (unless otherwise specified). The coverslips were continuously superfused with extracellular solution containing (mM): NaCl 140, KCl 5.4, HEPES 10, CaCl2 1.3, glucose 20, pH 7.4; osmolarity, 305-315 mOsm. NMDA-induced currents were applied by NMDA through perfusion fast-step (Warner Instruments). With perfusion fast-step system, NMDA application was achieved by using a two-square barrel glass tubing and depending on the age of the cultured neurons, CNQX (10 μM), TTX (0.5 μM) or BIC (10 μM) were added in the extracellular solution to minimize the activation of ionotropic glutamate receptors and voltage-gated sodium channels, respectively. All experiments were performed at room temperature. Recordings from at least six HEK293 cells/neurons were performed for all active compounds. […]

[2] = target: T2, GluN1/GluN2A^F115Y (Rattus norvegicus, UniProt P35439+Q00959, F115Y); test: Patch clamp in HEK293 cells expressing mutant GluN1/GluN2A F115Y; type: cell-based
T2 construct: expressed in transfected cells; host or cells: HEK293
T2 sequence (Q00959 23-1464 F115Y, other chains not shown): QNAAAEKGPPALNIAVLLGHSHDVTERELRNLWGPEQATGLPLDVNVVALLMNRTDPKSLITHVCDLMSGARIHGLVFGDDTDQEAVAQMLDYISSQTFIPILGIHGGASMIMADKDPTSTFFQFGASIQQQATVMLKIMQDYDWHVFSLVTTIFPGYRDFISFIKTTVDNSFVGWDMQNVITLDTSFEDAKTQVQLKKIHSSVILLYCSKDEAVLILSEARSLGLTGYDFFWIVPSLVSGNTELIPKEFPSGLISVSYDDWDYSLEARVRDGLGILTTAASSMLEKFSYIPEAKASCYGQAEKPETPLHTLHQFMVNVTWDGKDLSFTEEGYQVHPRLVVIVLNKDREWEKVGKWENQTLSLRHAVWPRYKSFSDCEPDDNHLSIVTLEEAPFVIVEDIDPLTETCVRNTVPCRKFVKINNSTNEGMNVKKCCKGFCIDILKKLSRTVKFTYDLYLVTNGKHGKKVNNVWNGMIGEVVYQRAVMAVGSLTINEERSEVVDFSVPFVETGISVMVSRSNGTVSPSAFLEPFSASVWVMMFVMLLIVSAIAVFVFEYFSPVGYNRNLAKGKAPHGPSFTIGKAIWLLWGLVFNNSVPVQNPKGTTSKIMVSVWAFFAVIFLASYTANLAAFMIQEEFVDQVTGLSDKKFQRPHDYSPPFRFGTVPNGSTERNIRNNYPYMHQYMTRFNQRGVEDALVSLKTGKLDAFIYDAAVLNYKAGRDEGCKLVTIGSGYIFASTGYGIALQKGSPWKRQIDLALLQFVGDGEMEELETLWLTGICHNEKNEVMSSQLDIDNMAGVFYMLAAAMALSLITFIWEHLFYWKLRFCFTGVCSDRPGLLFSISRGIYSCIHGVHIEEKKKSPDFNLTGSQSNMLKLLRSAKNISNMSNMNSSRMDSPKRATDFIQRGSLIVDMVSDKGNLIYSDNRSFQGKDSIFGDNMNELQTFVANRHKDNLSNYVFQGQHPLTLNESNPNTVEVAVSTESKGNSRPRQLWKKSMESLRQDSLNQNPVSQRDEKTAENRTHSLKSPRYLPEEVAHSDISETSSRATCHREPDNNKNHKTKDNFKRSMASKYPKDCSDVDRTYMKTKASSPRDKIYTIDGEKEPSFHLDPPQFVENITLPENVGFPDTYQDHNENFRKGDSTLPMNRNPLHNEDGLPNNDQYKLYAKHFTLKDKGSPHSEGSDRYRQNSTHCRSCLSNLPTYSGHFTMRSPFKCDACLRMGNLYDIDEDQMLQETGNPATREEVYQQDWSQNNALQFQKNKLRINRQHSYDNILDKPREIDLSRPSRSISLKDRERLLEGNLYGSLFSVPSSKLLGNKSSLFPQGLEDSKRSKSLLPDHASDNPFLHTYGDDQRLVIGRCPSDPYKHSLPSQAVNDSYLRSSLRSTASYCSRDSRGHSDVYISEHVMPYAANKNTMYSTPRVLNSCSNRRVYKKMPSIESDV
Method: as §1

[3] = test system: cortical neurons; test: H2O2-induced cytotoxicity in cortical neurons; type: cell-based; conditions: in the absence of NVP-AAM007; FIG. 17
[4] = target: T3, GluN1/GluN2A^M112I (Rattus norvegicus, UniProt P35439+Q00959, M112I); test: Patch clamp in HEK293 cells expressing mutant GluN1/GluN2A M112I; type: cell-based
T3 construct: expressed in transfected cells; host or cells: HEK293
Method: as §1

[5] = target: T4, GluN1^R115E/GluN2A (Rattus norvegicus, UniProt P35439+Q00959, R115E); test: Patch clamp in HEK293 cells expressing mutant GluN1 R115E/GluN2A; type: cell-based
T4 construct: expressed in transfected cells; host or cells: HEK293
T4 sequence (Q00959 23-1464, other chains not shown): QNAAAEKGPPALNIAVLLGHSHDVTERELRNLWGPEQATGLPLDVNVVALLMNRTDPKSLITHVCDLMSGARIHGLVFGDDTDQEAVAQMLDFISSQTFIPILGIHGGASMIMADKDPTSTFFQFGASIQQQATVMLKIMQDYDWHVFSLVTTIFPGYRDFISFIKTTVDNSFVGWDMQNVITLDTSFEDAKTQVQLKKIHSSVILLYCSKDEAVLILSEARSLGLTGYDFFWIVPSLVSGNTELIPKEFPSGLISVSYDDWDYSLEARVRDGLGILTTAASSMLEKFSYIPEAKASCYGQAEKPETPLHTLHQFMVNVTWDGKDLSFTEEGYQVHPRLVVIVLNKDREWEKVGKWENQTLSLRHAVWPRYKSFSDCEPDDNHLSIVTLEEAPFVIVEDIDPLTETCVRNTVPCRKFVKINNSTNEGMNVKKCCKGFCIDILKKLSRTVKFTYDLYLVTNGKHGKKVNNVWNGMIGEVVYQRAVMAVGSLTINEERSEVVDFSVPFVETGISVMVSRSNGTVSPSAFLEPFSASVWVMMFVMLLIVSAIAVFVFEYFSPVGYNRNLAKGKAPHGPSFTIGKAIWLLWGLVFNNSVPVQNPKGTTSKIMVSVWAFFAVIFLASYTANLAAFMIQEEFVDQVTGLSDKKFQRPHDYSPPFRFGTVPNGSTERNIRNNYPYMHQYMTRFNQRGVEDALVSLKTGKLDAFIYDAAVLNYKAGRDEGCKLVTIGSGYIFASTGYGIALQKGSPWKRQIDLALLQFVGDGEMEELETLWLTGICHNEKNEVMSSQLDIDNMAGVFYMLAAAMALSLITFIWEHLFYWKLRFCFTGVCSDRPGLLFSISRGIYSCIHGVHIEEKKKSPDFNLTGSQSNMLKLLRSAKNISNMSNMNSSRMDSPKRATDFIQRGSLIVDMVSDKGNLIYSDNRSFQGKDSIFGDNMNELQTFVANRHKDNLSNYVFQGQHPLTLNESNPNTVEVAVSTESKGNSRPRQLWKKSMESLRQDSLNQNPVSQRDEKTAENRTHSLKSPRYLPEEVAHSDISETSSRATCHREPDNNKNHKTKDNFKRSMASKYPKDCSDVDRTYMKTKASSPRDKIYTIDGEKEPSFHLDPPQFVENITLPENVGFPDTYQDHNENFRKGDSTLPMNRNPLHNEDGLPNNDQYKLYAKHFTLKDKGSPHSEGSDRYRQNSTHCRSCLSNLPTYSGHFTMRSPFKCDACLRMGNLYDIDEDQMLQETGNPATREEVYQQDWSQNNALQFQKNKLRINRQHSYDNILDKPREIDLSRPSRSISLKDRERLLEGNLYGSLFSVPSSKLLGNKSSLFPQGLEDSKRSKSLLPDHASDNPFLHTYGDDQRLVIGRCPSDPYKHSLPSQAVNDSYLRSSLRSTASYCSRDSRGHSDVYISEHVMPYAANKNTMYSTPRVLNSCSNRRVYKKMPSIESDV
Method: as §1

[6] = target: T5, GluN1/GluN2A^A108G (Rattus norvegicus, UniProt P35439+Q00959, A108G); test: Patch clamp in HEK293 cells expressing mutant GluN1/GluN2A A108G; type: cell-based
T5 construct: expressed in transfected cells; host or cells: HEK293
T5 sequence (Q00959 23-1464 A108G, other chains not shown): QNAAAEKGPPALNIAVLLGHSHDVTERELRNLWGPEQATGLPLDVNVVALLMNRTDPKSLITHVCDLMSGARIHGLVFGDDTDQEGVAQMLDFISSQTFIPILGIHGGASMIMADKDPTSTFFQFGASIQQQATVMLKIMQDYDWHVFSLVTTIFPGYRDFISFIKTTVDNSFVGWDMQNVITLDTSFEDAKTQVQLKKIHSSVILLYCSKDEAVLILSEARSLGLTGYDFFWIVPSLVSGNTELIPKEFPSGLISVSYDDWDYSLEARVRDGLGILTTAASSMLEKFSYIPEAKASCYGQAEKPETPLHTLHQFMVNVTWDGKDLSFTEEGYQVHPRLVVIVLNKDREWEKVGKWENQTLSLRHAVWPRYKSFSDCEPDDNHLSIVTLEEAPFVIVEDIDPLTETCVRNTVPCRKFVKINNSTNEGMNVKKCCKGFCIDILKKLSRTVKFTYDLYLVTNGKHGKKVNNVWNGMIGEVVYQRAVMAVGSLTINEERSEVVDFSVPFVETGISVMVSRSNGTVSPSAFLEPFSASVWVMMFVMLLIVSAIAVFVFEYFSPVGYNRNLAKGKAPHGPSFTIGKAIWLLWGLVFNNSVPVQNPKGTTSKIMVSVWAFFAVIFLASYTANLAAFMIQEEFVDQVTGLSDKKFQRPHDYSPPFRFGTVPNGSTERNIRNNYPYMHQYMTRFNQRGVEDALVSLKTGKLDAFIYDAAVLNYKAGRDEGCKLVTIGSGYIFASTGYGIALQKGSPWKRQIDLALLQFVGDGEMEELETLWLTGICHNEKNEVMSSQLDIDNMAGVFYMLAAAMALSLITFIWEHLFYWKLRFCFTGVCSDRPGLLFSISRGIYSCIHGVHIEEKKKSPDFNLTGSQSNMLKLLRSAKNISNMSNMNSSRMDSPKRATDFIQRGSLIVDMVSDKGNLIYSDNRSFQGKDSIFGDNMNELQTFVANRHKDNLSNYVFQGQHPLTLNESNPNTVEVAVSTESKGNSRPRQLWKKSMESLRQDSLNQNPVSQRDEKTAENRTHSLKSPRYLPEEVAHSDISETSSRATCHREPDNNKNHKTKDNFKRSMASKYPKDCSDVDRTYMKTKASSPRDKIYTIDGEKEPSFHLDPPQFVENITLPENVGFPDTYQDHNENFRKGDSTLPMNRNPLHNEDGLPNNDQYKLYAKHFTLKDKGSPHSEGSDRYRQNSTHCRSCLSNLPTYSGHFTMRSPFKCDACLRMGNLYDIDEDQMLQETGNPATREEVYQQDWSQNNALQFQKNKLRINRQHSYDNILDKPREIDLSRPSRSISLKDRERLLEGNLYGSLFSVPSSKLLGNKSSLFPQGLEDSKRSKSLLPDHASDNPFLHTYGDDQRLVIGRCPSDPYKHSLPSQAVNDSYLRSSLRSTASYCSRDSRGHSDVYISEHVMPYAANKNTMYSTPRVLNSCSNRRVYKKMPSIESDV
Method: as §1

[7] = test system: pCREB; test: pCREB levels in hippocampal and cortical tissue after i.v. injection; type: in vivo, rat; conditions: 1 mg/kg i.v., 1 h post-treatment
Method: Brain tissues or cultured cells were lysed on ice in the lysis buffer and then the solution was centrifuged at 14,000 rpm for 10 min at 4° C. Next, the supernatant was collected and protein concentrations were determined using a BCA protein assay kit (Thermo Scientific, 23227). Equal amount of protein samples were mixed with 4 times sample buffer, boiled at 100° C. for 5 min, and separated on 10% sodium dodecyl sulphate-polyacrylamide gel electrophoresis (SDS-PAGE). Proteins were then transferred to Immobilon-PTM polyvynilidene fluoride (PVDF) membranes (Bio-Rad, 162-0177). The membranes were blocked with 5% non-fat milk in Tris-buffered saline containing 0.1% Tween-20 (TBST) for 1 hour at room temperature, and then incubated overnight at 4° C. with primary antibody. After washing 3×5 min in TBST, protein was visualized in the Bio-Rad Imager using ECL Western blotting substrate (Pierce, 32016). For the detection of phospho-CREB, samples prepared in the same day were used. The polyvinylidene difluoride membrane (Millipore, Bedford, Mass., USA) was incubated with primary antibody against phospho-CREB (Ser133) (Cell Signaling Technology, Beverly, Mass.). […] The band density of each protein was quantified by the Bio-Rad Quantity One software and the relative optical density was analyzed relative to loading total-CREB on the same membrane. […]

CCOc1cc(Cl)c(Cl)c(/C=N/NC(=O)c2ccccc2Br)c1O [Npam43, (E)-2-bromo-N′-(2,3-dichloro-5-ethoxy-6-hydroxybenzylidene)benzohydrazide]
Relative potentiation ([1]; Table 3): 95.5 ± 3.8%
Net Difference potentiation ([1]; normalized to wild-type): −54.3 ± 0.42%
Relative potentiation ([2]; Table 3): 100 ± 4.2%
Net Difference potentiation ([2]; normalized to wild-type): −52.2 ± 0.52%
H2O2-induced non-NMDAR dependent cytotoxicity [3]: reduced
Relative potentiation ([4]; Table 3): 255 ± 19%
Net Difference potentiation ([4]; normalized to wild-type): +22.2 ± 0.94%
Relative potentiation ([5]; Table 3): 255 ± 3.5%
Net Difference potentiation ([5]; normalized to wild-type): +22.0 ± 0.40%
Relative potentiation ([6]; Table 3): 210 ± 9.0%
Net Difference potentiation ([6]; normalized to wild-type): +0.48 ± 0.01%
pCREB levels in hippocampal and cortical tissue [7]: elevated
